Experimental data as given in BindingDB's records for doi:10.1016/j.bmcl.2011.01.001 (Abbott Laboratories, 2011).
pKi: −log10 of the molar value.

target: Aurora kinase A (Homo sapiens) (UniProt O14965); test: Inhibition of aurora 2
Sequence (O14965 whole entry, looked up): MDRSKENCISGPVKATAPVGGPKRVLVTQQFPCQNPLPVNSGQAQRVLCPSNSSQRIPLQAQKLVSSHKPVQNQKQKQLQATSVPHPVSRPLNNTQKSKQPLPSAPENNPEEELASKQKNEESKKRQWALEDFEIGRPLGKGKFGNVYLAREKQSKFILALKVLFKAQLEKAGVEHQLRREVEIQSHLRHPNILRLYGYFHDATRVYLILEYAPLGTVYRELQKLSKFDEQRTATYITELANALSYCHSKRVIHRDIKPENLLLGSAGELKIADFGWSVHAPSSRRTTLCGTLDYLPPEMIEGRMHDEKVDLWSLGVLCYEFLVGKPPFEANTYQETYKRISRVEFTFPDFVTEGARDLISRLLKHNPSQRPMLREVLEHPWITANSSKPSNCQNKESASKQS

SMILES | pKi
Fc1ccc(-c2ncn(CCCN3CCOCC3)c2-c2ccc3[nH]ncc3c2)cc1 [4-(3-(4-(4-fluorophenyl)-5-(1H-indazol-5-yl)-1H-imidazol-1-yl)propyl)morpholine] | < 5.31
CCNc1nc(-c2ccc3[nH]ncc3c2)cs1 [N-ethyl-4-(1H-indazol-5-yl)thiazol-2-amine] | 5.47
c1cn2c(NC3CCCCC3)c(-c3ccc4[nH]ncc4c3)nc2cn1 [N-cyclohexyl-2-(1H-indazol-5-yl)imidazo[1,2-a]pyrazin-3-amine] | 5.68
c1ccc(CNc2nc(-c3ccc4[nH]ncc4c3)c(-c3ccccc3)s2)cc1 [N-benzyl-4-(1H-indazol-5-yl)-5-phenylthiazol-2-amine] | < 5.31
Fc1ccc(-c2ncn(C3CCN(Cc4ccccc4)C3)c2-c2ccc3[nH]ncc3c2)cc1 (centres undefined) [5-(1-(1-benzylpyrrolidin-3-yl)-4-(4-fluorophenyl)-1H-imidazol-5-yl)-1H-indazole] | < 5.31
c1ccc(CCNc2nc(-c3ccc4[nH]ncc4c3)cs2)cc1 [4-(1H-indazol-5-yl)-N-phenethylthiazol-2-amine] | 6.09
c1ccn2c(NC3CCCCC3)c(-c3ccc4[nH]ncc4c3)nc2c1 [N-cyclohexyl-2-(1H-indazol-5-yl)imidazo[1,2-a]pyridin-3-amine] | 5.06
c1ccc(Nc2nc(-c3ccc4[nH]ncc4c3)c(-c3ccccc3)s2)cc1 [4-(1H-indazol-5-yl)-N,5-diphenylthiazol-2-amine] | < 5.31
c1ccc(-c2c(-c3ccc4[nH]ncc4c3)nc3ncccn23)cc1 [2-(1H-indazol-5-yl)-3-phenylimidazo[1,2-a]pyrimidine] | < 5.31
Nc1nc(-c2ccc3[nH]ncc3c2)cs1 [4-(1H-indazol-5-yl)thiazol-2-amine] | 5.67
Clc1ccc(Nc2c(-c3ccc4[nH]ncc4c3)nc3ncccn23)cc1 [N-(4-chlorophenyl)-2-(1H-indazol-5-yl)imidazo[1,2-a]pyrimidin-3-amine] | 5.55
CCCCNc1c(-c2ccc3[nH]ncc3c2)nc2ncccn12 [N-butyl-2-(1H-indazol-5-yl)imidazo[1,2-a]pyrimidin-3-amine] | < 5.31
Cc1nc(-c2ccc3[nH]ncc3c2)cs1 [4-(1H-indazol-5-yl)-2-methylthiazole] | 5.35
CN(C)CCn1cnc(-c2ccc(F)cc2)c1-c1ccc2[nH]ncc2c1 [2-(4-(4-fluorophenyl)-5-(1H-indazol-5-yl)-1H-imidazol-1-yl)-N,N-dimethylethanamine] | < 5.31
